# Where “and” joins values, the source holds several entries; their conditions need not be identical. Equal values may be shown once. Entries after “also recorded” stand apart in the source; their conditions may differ.
# Test system: patients with symptoms of UAB syndrome
# Assay: Treatment of patients with symptoms of UAB syndrome with cevimeline (Qmax, PVR, UAB symptom questionnaire)
# Format: in vivo, human
# Settings: for UAB Score: five-question UAB symptom questionnaire, lower score = improvement; for UAB Score / PVR (residual urine volume in the bladder) / Qmax (maximum urine flow rate): individual patients
# Source text: Six different patients who each suffered from one or more medical conditions and symptoms of UAB syndrome were examined. UAB symptom-related data obtained from the patients before and after treatment with cevimeline was obtained from some of the patients and is presented below in Tables I-IV. […] Quantitative measurements were made to determine maximum urine flow rate Qmax (expressed in mL/s) and residual urine volume in the bladder PVR (expressed in mL). Qualitative measurements were obtained based on the patient's perceived UAB symptoms. A lower UAB score indicates an improvement in UAB symptoms. […] 4 and 6 after one week of treatment with cevimeline. Cevimeline was administered to each patient in 30 mg doses, three times per day. […] Specifically, the volume of residual urine in the bladder of patient 6 decreased from a baseline volume of 120 mL to a treated volume of 28 mL. To assess for qualitative improvement of UAB symptoms upon administration of cevimeline, patients were surveyed using a five-question UAB symptom questionnaire. The UAB score was then tallied from the patient responses. […] 4 and 6 after a two-week treatment with cevimeline. Cevimeline was administered to each patient in 60 mg doses, three times per day.
# [1] = after one week of treatment with cevimeline 30 mg tid
# [2] = after two weeks of treatment with cevimeline 60 mg tid
structure (smiles),measurement,setting,value
"C[C@@H]1O[C@@]2(CS1)CN1CCC2CC1 [cevimeline, (2R,5R)-2-methylspiro[1,3-oxathiolane-5,3′-1-azabicyclo[2.2.2]octane]]",UAB Score,[1],12 and 9 (2×)
same,PVR (residual urine volume in the bladder),[1],28 mL and 240 mL
same,Qmax (maximum urine flow rate),[1],2.9 mL/s and 3 mL/s
same,improvement in UAB symptoms (in words),"after one week, 30 mg three times per day, patient 4 and patient 6",did not demonstrate any quantitative or qualitative improvement; also recorded: did show quantitative improvement
same,UAB Score,[2],7
same,PVR (residual urine volume in the bladder),[2],92 mL and 69 mL
same,Qmax (maximum urine flow rate),[2],9.5 mL/s and 9.9 mL/s
same,improvement of UAB syndrome-related symptoms (in words),"after two-week treatment, 60 mg three times per day, patient 4 and patient 6",demonstrated both quantitative and qualitative improvements
same,overall effect on symptoms related to UAB syndrome (in words),initial data from preliminary studies,effective at treating the symptoms related to UAB syndrome
